Tested on: 885724-159-R-J1-PDC complex spheroid viability
Test: Anticancer human tumor 885724-159-R-J1-PDC patient-derived pancreatic adenocarcinoma cell line growth inhibition [GQUAD]
Conditions: for IC50: curve of first compound; for viability, T/C: stronger effect = lower value
Summary of the method: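 Multi-cell-type spheroids of tumor cells with HUVEC and mesenchymal stem cells, treated with drug combinations. Concentrations descend in half-log steps from near clinical Cmax, or from 10 microM where Cmax is unknown; viability read-out.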
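Further: spheroids exposed to agents for seven days before readout.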
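Wherever viability, T/C is given: percent of vehicle control viability where 100% = DMSO wells.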

C#Cc1c(F)ccc2cc(O)cc(-c3ncc4c(N5CC6CCC(C5)N6)nc(OCC56CCCN5CC(F)C6)nc4c3F)c12 (configuration not stated) + Cc1[nH]c2ccc(F)cc2c1-c1nc2c3cccnc3c3ncccc3c2[nH]1
IC50 (second compound 0.0316 µM): 4.05 µM | IC50 (second compound 0.1 µM): 3.75 µM | IC50 (second compound 0.316 µM): 4.07 µM | IC50 (second compound 1 µM): 3.55 µM | IC50 (second compound 3.16 µM): < 0.0316 µM | IC50 (second compound 10 µM): 4.5 µM | viability, T/C (second compound 0.0316 µM, first compound 0.0316 µM): 97% | viability, T/C (second compound 0.0316 µM, first compound 0.1 µM): 89.2% | viability, T/C (second compound 0.0316 µM, first compound 0.316 µM): 90.3% | viability, T/C (second compound 0.0316 µM, first compound 1 µM): 76.1% | viability, T/C (second compound 0.0316 µM, first compound 3.16 µM): 57.5% | viability, T/C (second compound 0.0316 µM, first compound 10 µM): 23.4% | viability, T/C (second compound 0.1 µM, first compound 0.0316 µM): 101% | viability, T/C (second compound 0.1 µM, first compound 0.1 µM): 97.8% | viability, T/C (second compound 0.1 µM, first compound 0.316 µM): 102% | viability, T/C (second compound 0.1 µM, first compound 1 µM): 87.4% | viability, T/C (second compound 0.1 µM, first compound 3.16 µM): 54.6% | viability, T/C (second compound 0.1 µM, first compound 10 µM): 24.9% | viability, T/C (second compound 0.316 µM, first compound 0.0316 µM): 94.5% | viability, T/C (second compound 0.316 µM, first compound 0.1 µM): 80.4% | viability, T/C (second compound 0.316 µM, first compound 0.316 µM): 85.4% | viability, T/C (second compound 0.316 µM, first compound 1 µM): 62.9% | viability, T/C (second compound 0.316 µM, first compound 3.16 µM): 63.1% | viability, T/C (second compound 0.316 µM, first compound 10 µM): 28% | viability, T/C (second compound 1 µM, first compound 0.0316 µM): 72.5% | viability, T/C (second compound 1 µM, first compound 0.1 µM): 69.2% | viability, T/C (second compound 1 µM, first compound 0.316 µM): 75% | viability, T/C (second compound 1 µM, first compound 1 µM): 59.4% | viability, T/C (second compound 1 µM, first compound 3.16 µM): 54.2% | viability, T/C (second compound 1 µM, first compound 10 µM): 29.5% | viability, T/C (second compound 3.16 µM, first compound 0.0316 µM): 18.4% | viability, T/C (second compound 3.16 µM, first compound 0.1 µM): 8.81% | viability, T/C (second compound 3.16 µM, first compound 0.316 µM): 12.7% | viability, T/C (second compound 3.16 µM, first compound 1 µM): 11.5% | viability, T/C (second compound 3.16 µM, first compound 3.16 µM): 9.79% | viability, T/C (second compound 3.16 µM, first compound 10 µM): 6.07% | viability, T/C (second compound 10 µM, first compound 0.0316 µM): 63.1% | viability, T/C (second compound 10 µM, first compound 0.1 µM): 75.8% | viability, T/C (second compound 10 µM, first compound 0.316 µM): 66% | viability, T/C (second compound 10 µM, first compound 1 µM): 61.2% | viability, T/C (second compound 10 µM, first compound 3.16 µM): 63.2% | viability, T/C (second compound 10 µM, first compound 10 µM): 21.7%
